These results are taken from ChEMBL document CHEMBL5291721, “A preclinical secondary pharmacology resource illuminates target-adverse drug reaction associations of marketed drugs” (Nat Commun, 2023).

In experiment [1] the target is T1, Endothelin-1 receptor (Homo sapiens, UniProt P25101).
T1 sequence (P25101 whole entry): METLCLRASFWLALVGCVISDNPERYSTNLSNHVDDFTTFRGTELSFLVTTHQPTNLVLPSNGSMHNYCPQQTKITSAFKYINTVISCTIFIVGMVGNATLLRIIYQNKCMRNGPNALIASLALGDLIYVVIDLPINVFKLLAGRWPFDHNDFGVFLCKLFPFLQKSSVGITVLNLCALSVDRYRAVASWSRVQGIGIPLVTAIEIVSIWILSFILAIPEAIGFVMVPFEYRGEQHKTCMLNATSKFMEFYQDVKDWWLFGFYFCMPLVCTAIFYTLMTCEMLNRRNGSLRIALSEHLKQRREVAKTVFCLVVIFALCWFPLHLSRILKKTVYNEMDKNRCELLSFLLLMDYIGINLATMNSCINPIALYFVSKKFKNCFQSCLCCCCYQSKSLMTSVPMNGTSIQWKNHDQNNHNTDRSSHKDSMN

Experiment [2] has as its target T2, Progesterone receptor (Homo sapiens, UniProt P06401).
T2 sequence (P06401 whole entry): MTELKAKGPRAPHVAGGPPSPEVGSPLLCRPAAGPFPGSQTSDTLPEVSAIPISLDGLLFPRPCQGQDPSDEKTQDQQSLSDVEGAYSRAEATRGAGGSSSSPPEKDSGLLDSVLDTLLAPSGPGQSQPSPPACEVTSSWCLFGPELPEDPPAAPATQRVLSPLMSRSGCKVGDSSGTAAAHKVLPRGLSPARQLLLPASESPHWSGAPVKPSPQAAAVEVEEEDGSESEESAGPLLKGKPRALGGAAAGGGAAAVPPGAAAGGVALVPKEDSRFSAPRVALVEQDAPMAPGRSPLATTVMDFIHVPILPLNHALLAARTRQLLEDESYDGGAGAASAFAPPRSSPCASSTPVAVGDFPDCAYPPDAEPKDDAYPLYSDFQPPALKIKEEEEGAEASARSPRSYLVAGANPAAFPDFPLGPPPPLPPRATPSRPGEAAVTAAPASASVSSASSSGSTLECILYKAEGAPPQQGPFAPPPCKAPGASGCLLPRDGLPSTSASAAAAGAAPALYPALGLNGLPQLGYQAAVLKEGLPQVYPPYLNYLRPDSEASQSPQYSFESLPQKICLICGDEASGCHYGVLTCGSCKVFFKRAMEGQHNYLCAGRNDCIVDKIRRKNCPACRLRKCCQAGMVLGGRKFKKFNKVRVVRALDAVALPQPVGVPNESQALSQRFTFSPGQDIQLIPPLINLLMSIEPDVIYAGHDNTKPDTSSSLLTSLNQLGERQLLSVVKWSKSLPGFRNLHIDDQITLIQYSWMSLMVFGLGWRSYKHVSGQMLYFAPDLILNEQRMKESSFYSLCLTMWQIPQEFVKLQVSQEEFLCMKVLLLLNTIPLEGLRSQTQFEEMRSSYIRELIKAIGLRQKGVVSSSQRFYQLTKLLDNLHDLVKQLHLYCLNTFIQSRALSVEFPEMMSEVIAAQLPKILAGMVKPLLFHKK
The experiment is classed as functional.

The target in experiment [3] is T3, Alpha-2C adrenergic receptor (Homo sapiens, UniProt P18825).
T3 sequence (P18825 whole entry): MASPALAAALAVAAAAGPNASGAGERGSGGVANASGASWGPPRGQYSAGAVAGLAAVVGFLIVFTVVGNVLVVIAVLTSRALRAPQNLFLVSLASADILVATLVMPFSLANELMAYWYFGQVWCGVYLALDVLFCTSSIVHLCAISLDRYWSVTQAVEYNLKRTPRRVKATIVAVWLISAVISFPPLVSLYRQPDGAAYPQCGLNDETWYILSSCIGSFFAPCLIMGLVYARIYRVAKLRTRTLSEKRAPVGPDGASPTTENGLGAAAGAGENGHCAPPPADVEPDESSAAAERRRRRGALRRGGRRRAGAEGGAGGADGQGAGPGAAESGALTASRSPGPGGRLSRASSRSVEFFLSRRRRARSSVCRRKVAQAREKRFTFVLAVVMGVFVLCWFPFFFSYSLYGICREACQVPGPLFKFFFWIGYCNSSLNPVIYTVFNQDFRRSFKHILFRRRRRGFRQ
The class given is functional.

For experiment [4], the target named is D(1A) dopamine receptor (Homo sapiens, UniProt P21728). The class given is functional, cell-based.
Experiment [5] has as its target Bile salt export pump (Homo sapiens, UniProt O95342). The class given is functional.
Experiment [6] deals with Sodium-dependent dopamine transporter (Homo sapiens, UniProt Q01959).

Bounds are passed on as bounds.
Further: assay procedure not described here.

D(1A) dopamine receptor, sequence (P21728 whole entry): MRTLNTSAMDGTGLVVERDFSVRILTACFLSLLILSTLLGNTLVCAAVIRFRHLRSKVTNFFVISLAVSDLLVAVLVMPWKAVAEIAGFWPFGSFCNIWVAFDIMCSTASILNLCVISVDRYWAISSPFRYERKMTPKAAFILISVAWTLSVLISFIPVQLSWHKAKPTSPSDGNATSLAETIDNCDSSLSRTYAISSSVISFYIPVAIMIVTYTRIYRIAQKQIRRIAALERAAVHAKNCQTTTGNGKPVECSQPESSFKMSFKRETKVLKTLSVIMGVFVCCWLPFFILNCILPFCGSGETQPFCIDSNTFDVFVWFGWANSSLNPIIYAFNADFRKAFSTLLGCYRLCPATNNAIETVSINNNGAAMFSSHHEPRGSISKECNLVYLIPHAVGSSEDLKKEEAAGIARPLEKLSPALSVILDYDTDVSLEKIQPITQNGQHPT
Sodium-dependent dopamine transporter, sequence (Q01959 whole entry): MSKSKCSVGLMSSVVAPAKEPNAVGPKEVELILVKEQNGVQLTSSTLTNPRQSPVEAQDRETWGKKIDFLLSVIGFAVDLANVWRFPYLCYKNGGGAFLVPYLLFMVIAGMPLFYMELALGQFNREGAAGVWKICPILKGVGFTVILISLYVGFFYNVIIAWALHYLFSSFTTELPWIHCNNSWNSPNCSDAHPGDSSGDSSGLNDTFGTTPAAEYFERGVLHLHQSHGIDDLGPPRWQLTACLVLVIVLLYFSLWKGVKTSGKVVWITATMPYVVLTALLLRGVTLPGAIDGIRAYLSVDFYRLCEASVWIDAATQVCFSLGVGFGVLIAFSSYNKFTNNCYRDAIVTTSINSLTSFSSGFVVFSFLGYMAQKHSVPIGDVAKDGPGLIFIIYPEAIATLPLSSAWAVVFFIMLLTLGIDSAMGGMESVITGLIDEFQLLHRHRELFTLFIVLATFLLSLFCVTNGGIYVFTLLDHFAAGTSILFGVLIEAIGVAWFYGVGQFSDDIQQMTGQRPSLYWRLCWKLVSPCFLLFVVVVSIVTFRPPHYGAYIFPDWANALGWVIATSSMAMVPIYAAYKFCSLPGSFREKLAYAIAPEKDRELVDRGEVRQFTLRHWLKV
Bile salt export pump, sequence (O95342 whole entry): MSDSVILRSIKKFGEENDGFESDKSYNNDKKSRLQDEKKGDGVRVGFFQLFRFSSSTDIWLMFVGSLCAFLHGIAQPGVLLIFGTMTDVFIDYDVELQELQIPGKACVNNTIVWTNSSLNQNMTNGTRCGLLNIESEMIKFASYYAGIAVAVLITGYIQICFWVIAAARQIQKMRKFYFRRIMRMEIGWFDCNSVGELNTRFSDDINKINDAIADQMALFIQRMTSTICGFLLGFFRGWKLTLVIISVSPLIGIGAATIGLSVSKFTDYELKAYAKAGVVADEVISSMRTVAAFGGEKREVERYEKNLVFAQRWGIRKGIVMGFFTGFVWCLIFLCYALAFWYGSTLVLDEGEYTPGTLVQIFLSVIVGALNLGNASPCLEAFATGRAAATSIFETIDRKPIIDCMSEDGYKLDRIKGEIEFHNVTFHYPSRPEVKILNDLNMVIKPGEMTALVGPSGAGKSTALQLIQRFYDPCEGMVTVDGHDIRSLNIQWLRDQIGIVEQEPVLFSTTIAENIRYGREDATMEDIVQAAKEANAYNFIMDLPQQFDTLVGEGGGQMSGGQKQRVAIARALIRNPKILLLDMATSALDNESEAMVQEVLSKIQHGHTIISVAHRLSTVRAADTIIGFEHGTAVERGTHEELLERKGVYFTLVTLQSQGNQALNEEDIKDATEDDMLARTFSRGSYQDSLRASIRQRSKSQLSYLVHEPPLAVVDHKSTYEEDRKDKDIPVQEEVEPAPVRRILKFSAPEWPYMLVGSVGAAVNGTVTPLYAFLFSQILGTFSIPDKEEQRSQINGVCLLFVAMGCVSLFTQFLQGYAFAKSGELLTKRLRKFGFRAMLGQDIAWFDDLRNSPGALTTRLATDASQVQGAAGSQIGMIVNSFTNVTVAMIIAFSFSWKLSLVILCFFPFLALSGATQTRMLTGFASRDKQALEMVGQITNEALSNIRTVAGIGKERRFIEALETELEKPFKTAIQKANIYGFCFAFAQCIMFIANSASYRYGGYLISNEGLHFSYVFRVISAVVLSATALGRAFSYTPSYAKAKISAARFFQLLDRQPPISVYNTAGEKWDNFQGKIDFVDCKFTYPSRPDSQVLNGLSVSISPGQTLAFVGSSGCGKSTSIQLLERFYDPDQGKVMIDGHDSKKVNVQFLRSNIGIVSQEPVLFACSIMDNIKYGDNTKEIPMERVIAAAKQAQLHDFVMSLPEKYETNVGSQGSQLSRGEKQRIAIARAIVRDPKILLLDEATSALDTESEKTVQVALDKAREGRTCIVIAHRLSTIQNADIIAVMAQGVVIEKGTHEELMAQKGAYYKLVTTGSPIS

Broadly, the AC50 is the midpoint of the concentration-response curve, whichever way the signal moves. With `CN(C)CCOC(c1ccc(Cl)cc1)c1ccccn1` (stereo not given) [CARBINOXAMINE], the AC50 in experiment [1] was more than 30 µM; in experiment [2], more than 30 µM; in experiment [3] it was more than 30 µM; in experiment [4], more than 30 µM; in experiment [5], more than 300 µM; in experiment [6], 5.2 µM.

As to `COC(=O)CCc1ccc(OCC(O)CNC(C)C)cc1` (stereo not given) [ESMOLOL], the concentration at half-maximal activity (AC50) in experiment [1] is more than 30 µM; in experiment [2], more than 30 µM; in experiment [3], more than 30 µM; in experiment [4] it was more than 30 µM; in experiment [5], more than 300 µM; in experiment [6], more than 30 µM.

In the case of `CC(C)(CO)c1cc2cc(NC(=O)C3(c4ccc5c(c4)OC(F)(F)O5)CC3)c(F)cc2n1C[C@@H](O)CO` [TEZACAFTOR], the concentration at half-maximal activity (AC50) in experiment [1] is more than 30 µM; in experiment [2] it was more than 30 µM; in experiment [3], more than 30 µM; in experiment [4], more than 30 µM; in experiment [5], more than 10 µM; in experiment [6], more than 30 µM.

As for `CCOCC(O)COc1ccc(NC(=O)CC[S+](C)C)cc1` (stereo not given), the concentration at half-maximal activity (AC50) in experiment [1] is more than 30 µM; in experiment [2], more than 30 µM; in experiment [3], more than 30 µM; in experiment [4], more than 30 µM; in experiment [5], more than 300 µM; in experiment [6], more than 30 µM.

As for `CO[C@@H]1[C@@H](OC(N)=O)[C@@H](O)[C@H](Oc2ccc3c(O)c(NC(=O)c4ccc(O)c(CC=C(C)C)c4)c(=O)oc3c2C)OC1(C)C` [NOVOBIOCIN], the concentration at half-maximal activity (AC50) in experiment [1] was more than 30 µM; in experiment [2], more than 30 µM; in experiment [3], more than 30 µM; in experiment [4], more than 30 µM; in experiment [5] it was 220 µM; in experiment [6], more than 30 µM.

As to `COc1cc2c(cc1OC)C1CC(=O)C(CC(C)C)CN1CC2` (stereo not given) [TETRABENAZINE], the AC50 in experiment [1] was more than 30 µM; in experiment [2], more than 30 µM; in experiment [3] it was more than 30 µM; in experiment [4] it was more than 30 µM; in experiment [5] it was 74 µM; in experiment [6] it was more than 30 µM.

With `CCN(CC)CCn1c(=O)c(Cc2ccc(OC)cc2)nc2ccccc21` [CAROVERINE], the AC50 in experiment [1] is more than 30 µM; in experiment [2] it was more than 30 µM; in experiment [3], 21.5 µM; in experiment [4], more than 30 µM; in experiment [5], more than 300 µM; in experiment [6] it was more than 30 µM.

As to `C[C@@H](O)[C@H]1C(=O)N2C(C(=O)O)=C(SCCN=CN)C[C@H]12` [IMIPENEM ANHYDROUS], the half-maximal activity concentration (AC50) in experiment [1], in experiment [2], in experiment [3], in experiment [4], in experiment [5] and in experiment [6] was more than 300 µM each time.

With `CN1CC2c3ccccc3Oc3ccc(Cl)cc3C2C1` (stereo not given) [ASENAPINE], the AC50 was more than 30 µM in experiment [1]; more than 30 µM in experiment [2]; 0.3 µM in experiment [3]; more than 30 µM in experiment [4]; 270 µM in experiment [5]; 11 µM in experiment [6].

As for `c1cnc2cc3c(cc2n1)[C@@H]1CNC[C@H]3C1` [VARENICLINE], the AC50 in experiment [1] was more than 30 µM; in experiment [2], more than 30 µM; in experiment [3] it was more than 30 µM; in experiment [4], more than 30 µM; in experiment [5], more than 300 µM; in experiment [6], more than 30 µM.

With `Cn1cnc2c(F)c(Nc3ccc(Br)cc3F)c(C(=O)NOCCO)cc21` [BINIMETINIB], the concentration at half-maximal activity (AC50) is more than 30 µM in experiment [1]; more than 30 µM in experiment [2]; more than 30 µM in experiment [3]; more than 30 µM in experiment [4]; 87 µM in experiment [5]; more than 30 µM in experiment [6].

On to `N[C@@H](Cc1cc(I)c(Oc2cc(I)c(O)c(I)c2)c(I)c1)C(=O)O` [LEVOTHYROXINE], for which the concentration at half-maximal activity (AC50) in experiment [1] is more than 30 µM; in experiment [2], 8.7 µM; in experiment [3] it was more than 30 µM; in experiment [4], more than 30 µM; in experiment [5], more than 300 µM; in experiment [6] it was more than 30 µM.

On to `O=C1[C@@H]2[C@H]3CC[C@H](C3)[C@@H]2C(=O)N1C[C@@H]1CCCC[C@H]1CN1CCN(c2nsc3ccccc23)CC1` [LURASIDONE], for which the AC50 was more than 30 µM in experiment [1], more than 30 µM in experiment [2], 1.1 µM in experiment [3] and 13 µM in experiment [5].

As for `CC(=O)NC[C@H]1CN(c2ccc(N3CCOCC3)c(F)c2)C(=O)O1` [LINEZOLID], the AC50 in experiment [1] was more than 30 µM; in experiment [2], more than 30 µM; in experiment [3] it was more than 30 µM; in experiment [5], more than 300 µM.

As for `CNC1(C)C2CCC(C2)C1(C)C` (stereo not given) [MECAMYLAMINE], the AC50 is more than 10 µM in experiment [2]; more than 10 µM in experiment [3]; more than 10 µM in experiment [4]; more than 300 µM in experiment [5]; more than 10 µM in experiment [6].

Take `CC[N+](CC)(CCNC(=O)C(=O)NCC[N+](CC)(CC)Cc1ccccc1Cl)Cc1ccccc1Cl` [AMBENONIUM]: the half-maximal activity concentration (AC50) in experiment [1] was more than 30 µM; in experiment [2], more than 30 µM; in experiment [3], 2.5 µM; in experiment [4], more than 30 µM; in experiment [5], more than 300 µM; in experiment [6], more than 30 µM.

With `CC(=O)SCC(Cc1ccccc1)C(=O)NCC(=O)OCc1ccccc1` (stereo not given) [RACECADOTRIL], the half-maximal activity concentration (AC50) was more than 30 µM in experiment [1]; more than 30 µM in experiment [2]; more than 30 µM in experiment [3]; more than 30 µM in experiment [4]; 21 µM in experiment [5]; more than 30 µM in experiment [6].

As to `CN(C)CCc1c[nH]c2ccc(CS(=O)(=O)N3CCCC3)cc12` [ALMOTRIPTAN], the concentration at half-maximal activity (AC50) in experiment [1] is more than 30 µM; in experiment [2] it was more than 30 µM; in experiment [3] it was more than 30 µM; in experiment [4] it was more than 30 µM; in experiment [5], more than 300 µM; in experiment [6] it was more than 30 µM.

On to `Nc1c2c(nc3ccccc13)CCCC2O` (stereo not given) [VELNACRINE], for which the AC50 in experiment [1] was more than 30 µM; in experiment [2], more than 30 µM; in experiment [3] it was more than 30 µM; in experiment [4], more than 30 µM; in experiment [5], more than 300 µM; in experiment [6] it was more than 30 µM.

With `CC(C)/N=c1\cc2n(-c3ccc(Cl)cc3)c3ccccc3nc-2cc1Nc1ccc(Cl)cc1` [CLOFAZIMINE], the concentration at half-maximal activity (AC50) in experiment [1] was more than 30 µM; in experiment [2], more than 30 µM; in experiment [3], 13 µM; in experiment [4], more than 30 µM; in experiment [5] it was 12 µM; in experiment [6], more than 30 µM.

Turning to `CCC1(c2ccccc2)C(=O)NCNC1=O` [PRIMIDONE], the AC50 in experiment [2] was more than 10 µM; in experiment [3], more than 10 µM; in experiment [4] it was more than 10 µM; in experiment [5] it was more than 300 µM; in experiment [6] it was more than 10 µM.

With `O=C(c1ccccc1)c1ccc2n1CCC2C(=O)O` (stereo not given) [KETOROLAC], the concentration at half-maximal activity (AC50) is more than 10 µM in experiment [2]; more than 30 µM in experiment [3]; more than 30 µM in experiment [4]; more than 300 µM in experiment [5]; more than 10 µM in experiment [6].

As for `C[C@H](Cn1cnc2c(N)ncnc21)OCP(=O)(O)O` [TENOFOVIR ANHYDROUS], the AC50 is more than 30 µM in experiment [2]; more than 30 µM in experiment [3]; more than 30 µM in experiment [4]; more than 300 µM in experiment [5]; more than 30 µM in experiment [6].
